# Assay results taken from ChEMBL document CHEMBL1153245, “A profile of the in vitro anti-tumor activity of imidazolium-based ionic liquids” (2010).
# Key:
# Assay type in all cases: functional
# [1] = system: NCI-H23; experiment: Anticancer activity against human NCI-H23 cells after 48 hrs by sulforhodamine B assay; settings: for CC50: read-out: LC50 (the source's name)
# [2] = system: PC-3; experiment: Anticancer activity against human PC3 cells after 48 hrs by sulforhodamine B assay; settings: for CC50: read-out: LC50 (the source's name)
# [3] = system: SF-295; experiment: Anticancer activity against human SF295 cells after 48 hrs by sulforhodamine B assay; settings: for CC50: read-out: LC50 (the source's name)
# [4] = system: Malme-3M; experiment: Anticancer activity against human MALME-3M cells after 48 hrs by sulforhodamine B assay
# [5] = system: HOP-62; experiment: Anticancer activity against human HOP62 cells after 48 hrs by sulforhodamine B assay; settings: for CC50: read-out: LC50 (the source's name)
# [6] = system: KM12; experiment: Anticancer activity against human KM12 cells after 48 hrs by sulforhodamine B assay; settings: for CC50: read-out: LC50 (the source's name)
# [7] = system: NCI-H460; experiment: Anticancer activity against human NCI-H460 cells after 48 hrs by sulforhodamine B assay
# [8] = system: ACHN; experiment: Anticancer activity against human ACHN cells after 48 hrs by sulforhodamine B assay
# [9] = system: IGROV-1; experiment: Anticancer activity against human IGROV1 cells after 48 hrs by sulforhodamine B assay; settings: IGROV-1, 48 h; for CC50: read-out: LC50 (the source's name)
# [10] = system: NCI-H226; experiment: Anticancer activity against human NCI-H226 cells after 48 hrs by sulforhodamine B assay
# [11] = system: MDA-MB-468; experiment: Anticancer activity against human MDA-MB-468 cells after 48 hrs by sulforhodamine B assay
# [12] = system: A498; experiment: Anticancer activity against human A498 cells after 48 hrs by sulforhodamine B assay; settings: for CC50: read-out: LC50 (the source's name)
# [13] = system: TK-10; experiment: Anticancer activity against human TK10 cells after 48 hrs by sulforhodamine B assay
# [14] = system: A549; experiment: Anticancer activity against human A549 cells after 48 hrs by sulforhodamine B assay
# [15] = system: OVCAR-5; experiment: Anticancer activity against human OVCAR5 cells after 48 hrs by sulforhodamine B assay; settings: for CC50: read-out: LC50 (the source's name)
# [16] = system: SK-MEL-28; experiment: Anticancer activity against human SK-MEL-28 cells after 48 hrs by sulforhodamine B assay
# [17] = Anticancer activity against human Hs 578T cells after 48 hrs by sulforhodamine B assay; settings: for CC50: read-out: LC50 (the source's name)
# [18] = system: SF-268; experiment: Anticancer activity against human SF268 cells after 48 hrs by sulforhodamine B assay; settings: for CC50: read-out: LC50 (the source's name)
# [19] = system: NCI-H322M; experiment: Anticancer activity against human NCI-H322M cells after 48 hrs by sulforhodamine B assay
# [20] = system: SNB-75; experiment: Anticancer activity against human SNB75 cells after 48 hrs by sulforhodamine B assay; settings: for CC50: read-out: LC50 (the source's name)
# [21] = system: UO-31; experiment: Anticancer activity against human UO31 cells after 48 hrs by sulforhodamine B assay
# [22] = system: OVCAR-8; experiment: Anticancer activity against human OVCAR8 cells after 48 hrs by sulforhodamine B assay
# [23] = system: UACC-62; experiment: Anticancer activity against human UACC62 cells after 48 hrs by sulforhodamine B assay
# [24] = system: EKVX; experiment: Anticancer activity against human EKVX cells after 48 hrs by sulforhodamine B assay; settings: for CC50: read-out: LC50 (the source's name)
# [25] = system: CCRF-CEM; experiment: Anticancer activity against human CCRF-CEM cells after 48 hrs by sulforhodamine B assay
# [26] = system: SNB-19; experiment: Anticancer activity against human SNB19 cells after 48 hrs by sulforhodamine B assay; settings: for CC50: read-out: LC50 (the source's name)
# [27] = system: HL-60(TB); experiment: Anticancer activity against human HL-60(TB) cells after 48 hrs by sulforhodamine B assay; settings: for CC50: read-out: LC50 (the source's name)
# [28] = system: SF-539; experiment: Anticancer activity against human SF539 cells after 48 hrs by sulforhodamine B assay
# [29] = system: U-251; experiment: Anticancer activity against human U251 cells after 48 hrs by sulforhodamine B assay; settings: for CC50: read-out: LC50 (the source's name)
# [30] = system: HCT-116; experiment: Anticancer activity against human HCT116 cells after 48 hrs by sulforhodamine B assay; settings: for CC50: read-out: LC50 (the source's name)
# [31] = system: DU-145; experiment: Anticancer activity against human DU145 cells after 48 hrs by sulforhodamine B assay; settings: for CC50: read-out: LC50 (the source's name)
# [32] = system: NCI-H522; experiment: Anticancer activity against human NCI-H522 cells after 48 hrs by sulforhodamine B assay
compound,measurement,setting,value
CCCCCCCCCCCC[n+]1ccn(C)c1.F[B-](F)(F)F,GI50,[1],2.44 µM
same,GI50,[2],2.08 µM
same,GI50,[3],2.93 µM
same,GI50,[4],5.06 µM
same,GI50,[5],9.48 µM
same,GI50,[6],1.85 µM
same,CC50,[6],23 µM
same,GI50,[7],4.29 µM
same,GI50,[8],10 µM
same,GI50,[9],0.533 µM
same,CC50,[9],> 100 µM
same,GI50,[10],4.62 µM
same,GI50,[11],0.556 µM
same,GI50,[12],7.53 µM
same,GI50,[13],2.04 µM
same,GI50,[14],7.14 µM
same,GI50,[15],7.49 µM
same,GI50,[16],10.1 µM
same,GI50,[17],6.11 µM
same,GI50,[18],5.98 µM
same,GI50,[19],24.6 µM
same,GI50,[20],3.71 µM
same,CC50,[20],90.3 µM
same,GI50,[21],15.9 µM
same,GI50,[22],3.25 µM
same,GI50,[23],4.25 µM
same,GI50,[24],0.792 µM
same,GI50,[25],1.62 µM
same,GI50,[26],10.9 µM
same,GI50,[27],0.324 µM
same,CC50,[27],9.93 µM
same,GI50,[28],2.88 µM
same,GI50,[29],2.81 µM
same,GI50,[30],2.36 µM
same,GI50,[31],10.9 µM
same,GI50,[32],2.96 µM
CCCCCCCCCCCCCCCC[n+]1ccn(C)c1.[Cl-],GI50,"[1]; Homo sapiens, NCI-H23, 48 h",0.504 µM
same,CC50,"[1]; Homo sapiens, NCI-H23, 48 h",> 100 µM
same,GI50,"[2]; Homo sapiens, PC-3, 48 h",0.268 µM
same,CC50,"[2]; Homo sapiens, PC-3, 48 h",3.86 µM
same,GI50,"[3]; Homo sapiens, SF-295, 48 h",0.383 µM
same,CC50,"[3]; Homo sapiens, SF-295, 48 h",5.02 µM
same,GI50,"[4]; Homo sapiens, Malme-3M, 48 h",0.549 µM
same,GI50,"[5]; Homo sapiens, HOP-62, 48 h",1.17 µM
same,CC50,"[5]; Homo sapiens, HOP-62, 48 h",6.89 µM
same,GI50,"[6]; Homo sapiens, KM12, 48 h",0.357 µM
same,CC50,"[6]; Homo sapiens, KM12, 48 h",3.57 µM
same,GI50,"[7]; Homo sapiens, NCI-H460, 48 h",0.498 µM
same,GI50,"[8]; Homo sapiens, ACHN, 48 h",0.832 µM
same,GI50,[9],0.048 µM
same,CC50,[9],> 100 µM
same,GI50,"[10]; Homo sapiens, NCI-H226, 48 h",0.861 µM
same,GI50,"[11]; Homo sapiens, MDA-MB-468, 48 h",0.092 µM
same,GI50,"[12]; Homo sapiens, A498, 48 h",1.11 µM
same,CC50,"[12]; Homo sapiens, A498, 48 h",7.39 µM
same,GI50,"[13]; Homo sapiens, TK-10, 48 h",0.295 µM
same,GI50,"[14]; Homo sapiens, A549, 48 h",1.07 µM
same,GI50,"[15]; Homo sapiens, OVCAR-5, 48 h",0.912 µM
same,CC50,"[15]; Homo sapiens, OVCAR-5, 48 h",7.24 µM
same,GI50,"[16]; Homo sapiens, SK-MEL-28, 48 h",0.948 µM
same,GI50,"[17]; Homo sapiens, Hs-578T, 48 h",0.538 µM
same,CC50,"[17]; Homo sapiens, Hs-578T, 48 h",6.11 µM
same,GI50,"[18]; Homo sapiens, SF-268, 48 h",1.02 µM
same,CC50,"[18]; Homo sapiens, SF-268, 48 h",4.93 µM
same,GI50,"[19]; Homo sapiens, NCI-H322M, 48 h",1.74 µM
same,GI50,"[20]; Homo sapiens, SNB-75, 48 h",0.555 µM
same,CC50,"[20]; Homo sapiens, SNB-75, 48 h",5.65 µM
same,GI50,"[21]; Homo sapiens, UO-31, 48 h",1.1 µM
same,GI50,"[22]; Homo sapiens, OVCAR-8, 48 h",0.865 µM
same,GI50,"[23]; Homo sapiens, UACC-62, 48 h",1.04 µM
same,GI50,"[24]; Homo sapiens, EKVX, 48 h",0.358 µM
same,CC50,"[24]; Homo sapiens, EKVX, 48 h",6.77 µM
same,GI50,"[25]; Homo sapiens, CCRF-CEM, 48 h",0.164 µM
same,GI50,"[26]; Homo sapiens, SNB-19, 48 h",1.22 µM
same,CC50,"[26]; Homo sapiens, SNB-19, 48 h",9.59 µM
same,GI50,"[27]; Homo sapiens, HL-60, 48 h",0.131 µM
same,CC50,"[27]; Homo sapiens, HL-60, 48 h",0.816 µM
same,GI50,"[28]; Homo sapiens, SF-539, 48 h",1.34 µM
same,GI50,"[29]; Homo sapiens, U-251, 48 h",0.334 µM
same,CC50,"[29]; Homo sapiens, U-251, 48 h",3.87 µM
same,GI50,"[30]; Homo sapiens, HCT-116, 48 h",0.349 µM
same,CC50,"[30]; Homo sapiens, HCT-116, 48 h",6.21 µM
same,GI50,"[31]; Homo sapiens, DU-145, 48 h",0.719 µM
same,CC50,"[31]; Homo sapiens, DU-145, 48 h",4.48 µM
same,GI50,"[32]; Homo sapiens, NCI-H522, 48 h",1.01 µM
CCCCCCCCCCCC[n+]1ccn(C)c1.[Cl-],GI50,[1],0.885 µM
same,CC50,"[1]; Homo sapiens, NCI-H23, 48 h",> 100 µM
same,GI50,"[2]; Homo sapiens, PC-3, 48 h",1.82 µM
same,CC50,"[2]; Homo sapiens, PC-3, 48 h",> 100 µM
same,GI50,"[3]; Homo sapiens, SF-295, 48 h",2.36 µM
same,CC50,"[3]; Homo sapiens, SF-295, 48 h",> 100 µM
same,GI50,"[4]; Homo sapiens, Malme-3M, 48 h",4.96 µM
same,GI50,"[5]; Homo sapiens, HOP-62, 48 h",4.86 µM
same,CC50,"[5]; Homo sapiens, HOP-62, 48 h",> 100 µM
same,GI50,"[6]; Homo sapiens, KM12, 48 h",2.09 µM
same,CC50,[6],85.8 µM
same,GI50,"[7]; Homo sapiens, NCI-H460, 48 h",3.39 µM
same,GI50,"[8]; Homo sapiens, ACHN, 48 h",7.24 µM
same,GI50,"[10]; Homo sapiens, NCI-H226, 48 h",3.55 µM
same,GI50,"[11]; Homo sapiens, MDA-MB-468, 48 h",0.384 µM
same,GI50,"[12]; Homo sapiens, A498, 48 h",4.28 µM
same,CC50,"[12]; Homo sapiens, A498, 48 h",> 100 µM
same,GI50,"[13]; Homo sapiens, TK-10, 48 h",1.92 µM
same,GI50,"[14]; Homo sapiens, A549, 48 h",5.92 µM
same,GI50,"[15]; Homo sapiens, OVCAR-5, 48 h",3.75 µM
same,CC50,"[15]; Homo sapiens, OVCAR-5, 48 h",> 100 µM
same,GI50,[16],4.57 µM
same,GI50,"[17]; Homo sapiens, Hs-578T, 48 h",3.13 µM
same,CC50,"[17]; Homo sapiens, Hs-578T, 48 h",> 100 µM
same,GI50,"[18]; Homo sapiens, SF-268, 48 h",4.68 µM
same,CC50,"[18]; Homo sapiens, SF-268, 48 h",> 100 µM
same,GI50,"[19]; Homo sapiens, NCI-H322M, 48 h",22.6 µM
same,GI50,"[20]; Homo sapiens, SNB-75, 48 h",2.74 µM
same,CC50,"[20]; Homo sapiens, SNB-75, 48 h",56.8 µM
same,GI50,"[21]; Homo sapiens, UO-31, 48 h",10.2 µM
same,GI50,"[22]; Homo sapiens, OVCAR-8, 48 h",2.18 µM
same,GI50,"[23]; Homo sapiens, UACC-62, 48 h",3.12 µM
same,GI50,"[24]; Homo sapiens, EKVX, 48 h",0.873 µM
same,CC50,"[24]; Homo sapiens, EKVX, 48 h",> 100 µM
same,GI50,[25],0.54 µM
same,GI50,"[26]; Homo sapiens, SNB-19, 48 h",6.76 µM
same,CC50,"[26]; Homo sapiens, SNB-19, 48 h",> 100 µM
same,GI50,"[27]; Homo sapiens, HL-60, 48 h",0.331 µM
same,CC50,"[27]; Homo sapiens, HL-60, 48 h",7.78 µM
same,GI50,"[28]; Homo sapiens, SF-539, 48 h",2.72 µM
same,GI50,"[29]; Homo sapiens, U-251, 48 h",2.15 µM
same,CC50,"[29]; Homo sapiens, U-251, 48 h",> 100 µM
same,GI50,"[30]; Homo sapiens, HCT-116, 48 h",3.59 µM
same,CC50,"[30]; Homo sapiens, HCT-116, 48 h",> 100 µM
same,GI50,[31],0.688 µM
same,CC50,"[31]; Homo sapiens, DU-145, 48 h",> 100 µM
same,GI50,"[32]; Homo sapiens, NCI-H522, 48 h",2.37 µM
